Measured values as given in PMC9574927 (Journal of Medicinal Chemistry, 2022).

How the values were obtained:
[1] = molecular target: SARS-CoV-2 M^pro (Severe acute respiratory syndrome coronavirus 2, UniProt P0DTD1); type: biochemical
[2] = mouse
[3] = in vivo; conditions: male, CD-1, mouse, po, 100 mg/kg

| Compound | activity against Mpro in words [1] | lung tissue Cmax ([2]; 25 mg/kg inhalative) | time of first appearance in plasma and urine post administration ([2]; 25 mg/kg inhalative) [min] | BALF concentrations at 5 h post administration (in words) ([2]; 100 mg/kg peroral, DOPS LUV formulation) | time up to which found in plasma and lung tissue ([2]; single inhalative dose 25 mg/kg) | CL/F [3] [mL/min/kg] |
| --- | --- | --- | --- | --- | --- | --- |
| CC(C)(C)OC(=O)Nc1cccn([C@H](CC2CC2)C(=O)N[C@@H](C[C@@H]2CCNC2=O)C(=O)C(=O)NCc2ccccc2)c1=O [Compound 13b-H, tert-Butyl (1-((R)-1-(((S)-4-(Benzylamino)-3,4-dioxo-1-((S)-2-oxopyrrolidin-3-yl)butan-2-yl)amino)-3-cyclopropyl-1-oxopropan-2-yl)-2-oxo-1,2-dihydropyridin-3-yl)carbamate] | nearly inactive | – | – | – | – | – |
| CC(C)(C)OC(=O)Nc1cccn([C@@H](CC2CC2)C(=O)N[C@@H](C[C@@H]2CCNC2=O)C(=O)C(=O)NCc2ccccc2)c1=O [Compound 13b-K, tert-Butyl (1-((S)-1-(((S)-4-(Benzylamino)-3,4-dioxo-1-((S)-2-oxopyrrolidin-3-yl)butan-2-yl)amino)-3-cyclopropyl-1-oxopropan-2-yl)-2-oxo-1,2-dihydropyridin-3-yl)carbamate] | – | 261,748 ± 1294.4 ng/g | ≤ 15 | in the same range as after inhalative administration of 25 mg/kg | up to 24 h | 1160 |
